Results on two compounds are retold here after ChEMBL document CHEMBL5120851, “Discovery of indirubin-3'-aminooxy-acetamide derivatives as potent and selective FLT3/D835Y mutant kinase inhibitors for acute myeloid leukemia” (Eur J Med Chem, 2022).

pIC50: −log10 of the molar value.

Broadly, the inhibition is the percentage by which the read-out fell short of the control. One may read the GI50 as the concentration that inhibits growth by half. What is called AUC(0-t) is the area under the concentration-time curve up to a stated or last time point. The low end stands for low exposure, the high end for high exposure. Usually clearance stands for a measure of how efficiently the substance is removed, as volume per time. For orientation: pIC50 means the IC50 on a negative log10 scale, so that one unit is a factor of ten. The term half-life denotes the time in which the quantity being followed falls by half.

For one series, the system named is A549. Kind of series: Antiproliferative activity against human A549 cells assessed as inhibition of cell growth at 1 uM incubated for 72 hrs by EZ-Cytox colorimetric assay relative to control. The class given is functional.
A further series deals with MV4-11. Kind of series: Antiproliferative activity against human MV4-11 cells assessed as inhibition of cell growth incubated for 72 hrs by EZ-Cytox colorimetric assay. Format: functional.
A further series deals with K562. Put plainly: Antiproliferative activity against human K562 cells assessed as inhibition of cell growth at 1 uM incubated for 72 hrs by EZ-Cytox colorimetric assay relative to control. Format: functional.
For another series, the system named is HCT-116. Kind of series: Antiproliferative activity against human HCT-116 cells assessed as inhibition of cell growth at 1 uM incubated for 72 hrs by EZ-Cytox colorimetric assay relative to control. The class given is functional.
Series [1] has as its system BaF3. Put plainly: Antiproliferative activity against mouse BaF3 cells harboring FLT3 ITD/D835Y double mutant assessed as inhibition of cell growth incubated for 72 hrs by EZ-Cytox colorimetric assay. The class given is functional.
The next series deals with Huh-7. Kind of series: Antiproliferative activity against human Huh-7 cells assessed as inhibition of cell growth incubated for 72 hrs by EZ-Cytox colorimetric assay. The class given is functional.
Series [2] relates to BaF3. Kind of series: Antiproliferative activity against mouse BaF3 cells harboring FLT3 ITD mutant assessed as inhibition of cell growth incubated for 72 hrs by EZ-Cytox colorimetric assay. Format: functional.
The test system of another series is HepG2. Kind of series: Antiproliferative activity against human HepG2 cells assessed as inhibition of cell growth at 1 uM incubated for 72 hrs by EZ-Cytox colorimetric assay relative to control. Format: functional.
Another series deals with MDA-MB-231. Put plainly: Antiproliferative activity against human MDA-MB-231 cells assessed as inhibition of cell growth at 1 uM incubated for 72 hrs by EZ-Cytox colorimetric assay relative to control. The class given is functional.
The test system of series [3] is MOLM-14. Kind of series: Antiproliferative activity against human MOLM-14 cells harboring FLT3 ITD/D835Y double mutant assessed as inhibition of cell growth incubated for 72 hrs by EZ-Cytox colorimetric assay. The class given is functional.
Series [4] deals with MOLM-14. Kind of series: Antiproliferative activity against human MOLM-14 cells assessed as inhibition of cell growth incubated for 72 hrs by EZ-Cytox colorimetric assay. Format: functional.
In series [5] the test system is MOLM-14. Put plainly: Antiproliferative activity against human MOLM-14 cells harboring FLT3 ITD/F691L double mutant assessed as inhibition of cell growth incubated for 72 hrs by EZ-Cytox colorimetric assay. The class given is functional.
In another series the test system is PC-3. Kind of series: Antiproliferative activity against human PC-3 cells assessed as inhibition of cell growth at 1 uM incubated for 72 hrs by EZ-Cytox colorimetric assay relative to control. Format: functional.
Series [6] has as its system BaF3. Put plainly: Antiproliferative activity against mouse BaF3 cells harboring FLT3 ITD/F691L double mutant assessed as inhibition of cell growth incubated for 72 hrs by EZ-Cytox colorimetric assay. The class given is functional.
Series [7] can be described thus: AUClast in ICR mouse at 10 mg/kg, iv measured upto 24 hrs. The class given is ADME, organism-based. Further details: time < 24 hrs, dose 10 mg/kg, route iv. To be noted: in vivo.
A short description of series [8]: Volume of distribution at steady state in ICR mouse at 10 mg/kg, iv measured upto 24 hrs. The note with it: in vivo, read-out: Vdss. The class given is ADME, organism-based.
Series [9] is described as follows: Clearance in ICR mouse at 10 mg/kg, iv measured upto 24 hrs. The class given is ADME, organism-based. To be noted: in vivo.
The target of series [10] is Receptor-type tyrosine-protein kinase FLT3 (Homo sapiens, UniProt P36888, D835Y). Put plainly: Inhibition of human recombinant His-tagged FLT3/D835Y mutant expressed in baculovirus expression system incubated for 30 mins in presence of ATP by HTRF analysis. A general note: Time-resolved FRET reads energy transfer from a long-lived donor to a nearby acceptor.
Series [11] addresses T1, Receptor-type tyrosine-protein kinase FLT3 (Homo sapiens, UniProt P36888).
T1 sequence (P36888 whole entry): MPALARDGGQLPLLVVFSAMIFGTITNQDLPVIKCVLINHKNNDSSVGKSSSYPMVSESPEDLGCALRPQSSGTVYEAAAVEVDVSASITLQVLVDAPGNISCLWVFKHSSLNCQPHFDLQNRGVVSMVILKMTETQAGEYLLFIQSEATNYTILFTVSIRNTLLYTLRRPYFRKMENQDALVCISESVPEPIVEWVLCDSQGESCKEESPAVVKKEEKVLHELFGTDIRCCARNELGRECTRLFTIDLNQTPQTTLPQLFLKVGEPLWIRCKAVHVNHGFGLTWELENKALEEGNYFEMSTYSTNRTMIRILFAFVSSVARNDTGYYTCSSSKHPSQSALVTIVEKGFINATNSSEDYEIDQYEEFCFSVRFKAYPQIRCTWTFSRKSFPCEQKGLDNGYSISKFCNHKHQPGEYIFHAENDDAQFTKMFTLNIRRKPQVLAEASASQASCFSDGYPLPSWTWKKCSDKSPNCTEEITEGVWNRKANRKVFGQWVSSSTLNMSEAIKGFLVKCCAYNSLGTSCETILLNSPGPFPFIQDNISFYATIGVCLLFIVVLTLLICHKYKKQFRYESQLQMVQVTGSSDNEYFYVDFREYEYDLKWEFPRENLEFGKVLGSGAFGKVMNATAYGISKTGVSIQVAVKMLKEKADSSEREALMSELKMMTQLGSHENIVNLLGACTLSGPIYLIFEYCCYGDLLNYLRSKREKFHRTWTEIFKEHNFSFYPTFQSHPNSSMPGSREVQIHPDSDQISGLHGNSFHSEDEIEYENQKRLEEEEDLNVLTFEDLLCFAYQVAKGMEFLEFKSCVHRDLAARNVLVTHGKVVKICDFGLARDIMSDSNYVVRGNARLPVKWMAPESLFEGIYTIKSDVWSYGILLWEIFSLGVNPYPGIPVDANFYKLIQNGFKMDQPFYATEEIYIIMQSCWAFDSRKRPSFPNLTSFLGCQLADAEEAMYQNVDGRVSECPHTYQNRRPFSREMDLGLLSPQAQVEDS
Kind of series: Inhibition of human recombinant His-tagged FLT3 kinase domain (564 to 958 residues) expressed in baculovirus expression system incubated for 30 mins in presence of ATP by HTRF analysis.

The nature of series [12]: Half life in ICR mouse at 10 mg/kg, iv measured upto 24 hrs. Format: ADME, organism-based. To be noted: in vivo.

`CCc1nc(C(N)=O)c(Nc2ccc(N3CCC(N4CCN(C)CC4)CC3)c(OC)c2)cc1NC1CCOCC1`: the inhibition at 1 µM in the series with A549 came out at 4.31%; in the series with K562, 74.6%; in the series on HCT-116, 47.7%; in the series with HepG2, 46.9%; with MDA-MB-231, 42.1%; in the series on PC-3 it was 44.3%. Moreover, the GI50 is 8.2 nM in the series on MV4-11; 2.45 nM in the series with BaF3 [1]; 435 nM with Huh-7; 1.9 nM in the series on BaF3 [2]; 19.4 nM in the series with MOLM-14 [3]; 35.4 nM in the series on MOLM-14 [4]. Besides, the results for the GI50 in the series on MOLM-14 [5] and in the series on BaF3 [6] were 70.1 nM and 38 nM, respectively.
On to `Cl.O=C(CO/N=C1/C(=C2/C(=O)Nc3ccccc32)Nc2ccccc21)N[C@@H]1CCNC1`, for which the AUC(0-t) at 24 h in series [7] came to 367 ng·h/mL. For the same compound, the GI50 in the series on MV4-11 worked out at 0.52 nM; in the series on MOLM-14 [3], 3.49 nM; in the series on MOLM-14 [4], 2.73 nM; in the series with MOLM-14 [5] it was 3.23 nM. The Vd in series [8] was 103 L/kg. In series [9], this compound had a clearance of 323 mL/min/kg. Moreover, the pIC50 in series [10] was 9.70; in [11] it was 9.54. In [12], the half-life was 3.7 h.
